Here are results for 5 molecules from PubChem BioAssay AID1963829 (Molecular Pharmacology Branch, DTP, NCI, 2024).

SMILES strings stand for the structures. Several values for one entry are separate records, joined by “and”; a condition that tells them apart may be missing. Identical values can stand only once. Some results are limits rather than exact numbers.

This assay relates to 935938-334-R-J1-PDC complex spheroid viability. The assay can be described thus: Anticancer human tumor 935938-334-R-J1-PDC patient-derived small intestine adenocarcinoma cell line growth inhibition [POLQ]. The settings on record: for viability, T/C: stronger effect = lower value. The protocol: Multicellular complex tumor spheroid response to Polymerase (POL) inhibitors (novobiocin, ART-558, RP6685) in combination with a variety of drugs and investigational agents in selected tumor cell lines
The POL inhibitors (novobiocin, ART-558, and RP6685) were evaluated both individually and in combination with standard of care and investigational anticancer small molecules within a complex spheroid model of solid tumors. . Complex spheroids include a stromal component modeled by human endothelial cells (HUVEC) and fibroblasts modeled by human mesenchymal stem cells (MSCs). The concentration ranges selected for each drug and investigational agent were based upon clinically achievable concentrations if the clinical Cmax of the agent was known.
Compounds. The drugs and investigational agents: novobiocin (NSC847541), ART-558 (NSC835418), RP-6685 (NSC848927), peposertib (NSC802822), ceralasertib (NSC780249), elimusertib (NSC800525), camonsertib (NSC841442), AZD-1390 (NSC803789), olaparib (NSC753686), talazoparib (NSC767125), rucaparib (NSC756644), sotorasib (NSC818433), MRTX-1133 (NSC836407), SN-38 (NSC673596), topotecan (NSC609699), epotoside (NSC141540), doxorubicin (NSC123127), gemcitabine (NSC613327), 5-fluorouracil (NSC19893), paclitaxel (NSC125973), vemurafenib (NSC761431), MSA-2 (NSC828583), SN-011 (NSC837082), adavosertib (NSC754352), prexasertib (NSC758257), carboplatin (NSC241240) and oxaliplatin (NSC266046), were obtained from the National Cancer Institute (NCI) Developmental Therapeutics Program Chemical Repository (21). The FDA-approved anticancer drug set is available from the Developmental Therapeutics Program at https://dtp.cancer.gov/organization/dscb/obtaining/. […] The stock solutions were prepared in dimethyl sulfoxide (DMSO, Sigma-Aldrich, St. Louis, MO, cat. D2650), except for the platinum compounds which were prepared in saline (Quality Biological, Gaithersburg, MD, cat. 114-055-101), at 800-fold the tested concentration and stored at -70 degrees C prior to their use. All drugs and investigational agents were tested over a range starting from a high concentration at or near the clinical Cmax and decreasing in half-log increments. If the clinical Cmax for an agent had not been determined, the highest concentration tested was 10 microM, except for SN-38, which was tested at a high concentration of 1 microM.
Cell Culture. All cells were maintained in an incubator at 37 degrees C and 5% CO2 with 95% humidity. The PDC lines were cultured according to standard operating procedures established by the NCI PDMR (https://pdmr.cancer.gov). Table 3 of the manuscript, lists the cell lines along with the number of the three cell types plated to form the mct-spheroids and media for tumor cell growth. After thawing, all PDC lines, except 997537-175-T-J1-PDC and 415267-285-R-J2-PDC, were cultured in Matrigel-coated flasks prepared with a working solution of 1X Ham's F-12 nutrient mix, without supplementation (Thermo Fisher Scientific, cat. 11765054), 100 U/mL penicillin-streptomycin (Thermo Fisher Scientific, cat. 15140122), and 2.5% Matrigel (Corning Inc., Corning, NY, cat. 354248) for the first three passages. The two PDC lines 997537-175-T-J1-PDC and 415267-285-R-J2-PDC were cultured on uncoated flasks. The 857933-349-R-J2-PDC line was cultured in 6C/Colon 1B media containing advanced DMEM/F-12 (Thermo Fisher Scientific, cat. 12634028), 10 mM HEPES (Thermo Fisher Scientific, cat. 15630080), 1X GlutaMAX supplement (Thermo Fisher Scientific, cat. 35050061), 0.1 mg/mL primocin (InvivoGen, San Diego, CA, cat. ant-pm-2), 10% defined fetal bovine serum, heat inactivated (HyClone Laboratories Inc., Logan, UT, cat. SH30070.03HI), 50% L-WRN conditioned media (ATCC, cat. CRL-3276), 1.25 mM N-Acetyl-L-cysteine (Sigma-Aldrich, cat. A9165), 10 mM nicotinamide (Sigma-Aldrich, cat. N0636), 1X B-27 supplement (Thermo Fisher Scientific, cat. 17504044), 1X N-2 supplement (Thermo Fisher Scientific, cat. […]

[1] abbreviates: curve of first compound, second compound 0.0316 µM.
The mark [2] stands for this setting: curve of first compound, second compound 0.1 µM.
Where [3] appears, read: curve of first compound, second compound 0.316 µM.
The mark [4] stands for this setting: curve of first compound, second compound 1 µM.
Where [5] appears, read: curve of first compound, second compound 3.16 µM.
The mark [6] stands for this setting: curve of first compound, second compound 10 µM.
The mark [7] stands for this setting: second compound 0.0316 µM, first compound 0.0316 µM.
The mark [8] stands for this setting: second compound 0.0316 µM, first compound 0.1 µM.
The mark [9] stands for this setting: second compound 0.0316 µM, first compound 0.316 µM.
The mark [10] stands for this setting: second compound 0.0316 µM, first compound 1 µM.
The mark [11] stands for this setting: second compound 0.0316 µM, first compound 3.16 µM.
The mark [12] stands for this setting: second compound 0.0316 µM, first compound 10 µM.
[13] abbreviates: second compound 0.1 µM, first compound 0.0316 µM.
Where [14] appears, read: second compound 0.1 µM, first compound 0.1 µM.
Setting [15] is: second compound 0.1 µM, first compound 0.316 µM.
[16] abbreviates: second compound 0.1 µM, first compound 1 µM.
Setting [17] is: second compound 0.1 µM, first compound 3.16 µM.
[18] abbreviates: second compound 0.1 µM, first compound 10 µM.
The mark [19] stands for this setting: second compound 0.316 µM, first compound 0.0316 µM.
Where [20] appears, read: second compound 0.316 µM, first compound 0.1 µM.
Setting [21] is: second compound 0.316 µM, first compound 0.316 µM.
[22] abbreviates: second compound 0.316 µM, first compound 1 µM.
Setting [23] is: second compound 0.316 µM, first compound 3.16 µM.
Where [24] appears, read: second compound 0.316 µM, first compound 10 µM.
The mark [25] stands for this setting: second compound 1 µM, first compound 0.0316 µM.
Where [26] appears, read: second compound 1 µM, first compound 0.1 µM.
Where [27] appears, read: second compound 1 µM, first compound 0.316 µM.
[28] abbreviates: second compound 1 µM, first compound 1 µM.
Where [29] appears, read: second compound 1 µM, first compound 3.16 µM.
[30] abbreviates: second compound 1 µM, first compound 10 µM.
Where [31] appears, read: second compound 3.16 µM, first compound 0.0316 µM.
The mark [32] stands for this setting: second compound 3.16 µM, first compound 0.1 µM.
[33] abbreviates: second compound 3.16 µM, first compound 0.316 µM.
Where [34] appears, read: second compound 3.16 µM, first compound 1 µM.
Setting [35] is: second compound 3.16 µM, first compound 3.16 µM.
The mark [36] stands for this setting: second compound 3.16 µM, first compound 10 µM.
Where [37] appears, read: second compound 10 µM, first compound 0.0316 µM.
[38] abbreviates: second compound 10 µM, first compound 0.1 µM.
Setting [39] is: second compound 10 µM, first compound 0.316 µM.
[40] abbreviates: second compound 10 µM, first compound 1 µM.
[41] abbreviates: second compound 10 µM, first compound 3.16 µM.
The mark [42] stands for this setting: second compound 10 µM, first compound 10 µM.

The term IC50 denotes the concentration needed to halve the response being measured. The term viability, T/C denotes the result in the treated group divided by that in the control group, in per cent.
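Note: spheroids exposed to drugs for seven days before viability read.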
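Throughout, for viability, T/C: 100% = DMSO vehicle control wells.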

Take `COc1cccc2c1C(=O)c1c(O)c3c(c(O)c1C2=O)CC(O)(C(=O)CO)CC3OC1CC(N)C(O)C(C)O1` (centres undefined) + COC1C(OC(N)=O)C(O)C(Oc2ccc3c(O)c(NC(=O)c4ccc(O)c(CC=C(C)C)c4)c(=O)oc3c2C)OC1(C)C: the half-maximal inhibitory concentration (IC50) runs as follows: under setting [1], 217 nM; under setting [2], 221 nM; under setting [3], 190 nM; under setting [4], 228 nM; under setting [5], 211 nM; under setting [6], 216 nM. Also, the viability, T/C under setting [7] is 84.4%; the viability, T/C under setting [8] was 93.7%; the viability, T/C under setting [9] was 30.8%; the viability, T/C under setting [10] was 19.2%; the viability, T/C under setting [11] is 5.61%; the viability, T/C under setting [12] was 7.78%. For the same molecule, the viability, T/C is 75.3% under setting [13]; 98.3% under setting [14]; 33.4% under setting [15]; 20.2% under setting [16]; 4.7% under setting [17]; 4.37% under setting [18]. Further, the viability, T/C under setting [19] was 67.5%; the viability, T/C under setting [20] is 93.3%; the viability, T/C under setting [21] was 25.9%; the viability, T/C under setting [22] is 20.4%; the viability, T/C under setting [23] is 6.24%; the viability, T/C under setting [24] was 5.64%. In addition, the viability, T/C reads like this: under setting [25], 66.8%; under setting [26], 103%; under setting [27], 36%; under setting [28], 23.7%; under setting [29], 6.64%; under setting [30], 5.44%. Besides, the viability, T/C under setting [31] is 52.7%; the viability, T/C under setting [32] was 113%; the viability, T/C under setting [33] is 32.1%; the viability, T/C under setting [34] is 22.1%; the viability, T/C under setting [35] is 6.52%; the viability, T/C under setting [36] is 3.3%. Further, the viability, T/C under setting [37] is 61.5%; the viability, T/C under setting [38] was 122%; the viability, T/C under setting [39] is 29%; the viability, T/C under setting [40] was 21.3%; the viability, T/C under setting [41] was 5.32%; the viability, T/C under setting [42] was 5.87%.

Turning to `COC1C(OC(N)=O)C(O)C(Oc2ccc3c(O)c(NC(=O)c4ccc(O)c(CC=C(C)C)c4)c(=O)oc3c2C)OC1(C)C` (centres undefined), under “compound alone, run of 11/27/2023”, the IC50 is > 10000 nM.

For the molecule `O=C(c1cc(Cc2n[nH]c(=O)c3ccccc23)ccc1F)N1CCN(C(=O)C2CC2)CC1` + COC1C(OC(N)=O)C(O)C(Oc2ccc3c(O)c(NC(=O)c4ccc(O)c(CC=C(C)C)c4)c(=O)oc3c2C)OC1(C)C, the IC50 runs as follows: under setting [1], > 10000 nM; under setting [2], > 10000 nM; under setting [3], > 10000 nM; under setting [4], > 10000 nM; under setting [5], > 10000 nM; under setting [6], > 10000 nM. Further, the viability, T/C is 83.4% under setting [7]; 89.7% under setting [8]; 87.5% under setting [9]; 110% under setting [10]; 79.9% under setting [11]; 64.6% under setting [12]. Moreover, the viability, T/C by setting is: under setting [13], 101%; under setting [14], 99.1%; under setting [15], 95.9%; under setting [16], 90.8%; under setting [17], 80.8%; under setting [18], 58%. For the same molecule, the viability, T/C is 78.4% under setting [19]; 98.6% under setting [20]; 90.3% under setting [21]; 77.4% under setting [22]; 88.7% under setting [23]; 85.2% under setting [24]. The viability, T/C was 76.7% under setting [25]; 84.6% under setting [26]; 102% under setting [27]; 87.5% under setting [28]; 94.5% under setting [29]; 79.4% under setting [30]. Further, the viability, T/C is 119% under setting [31]; 85% under setting [32]; 107% under setting [33]; 75.9% under setting [34]; 64.6% under setting [35]; 84% under setting [36]. The viability, T/C was 94.9% under setting [37]; 102% under setting [38]; 80.3% under setting [39]; 83.8% under setting [40]; 81.7% under setting [41]; 69.5% under setting [42].

In the case of `COc1cccc(OCCCN)c1-c1cc(Nc2cnc(C#N)cn2)n[nH]1`, the viability, T/C is 93.3% and 117% and 102% (compound 0.00316 µM); 77.8% and 102% and 85.5% (compound 0.01 µM); 53.3% and 60.4% and 57.6% (compound 0.0316 µM); 22.6% and 36.9% and 41.6% (compound 0.1 µM); 11.3% and 14.1% and 8.34% (compound 0.316 µM); 10% and 10.2% and 9.09% (compound 1 µM). In addition, for the setting “curve of compound”, the IC50 was 33.6 nM and 53.8 nM and 50.9 nM.

Turning to `CNCc1ccc(-c2[nH]c3cc(F)cc4c3c2CCNC4=O)cc1`, the viability, T/C by setting is: (compound 0.0316 µM) 114% and 107% and 98.2%; (compound 0.1 µM) 119% and 78.9% and 107%; (compound 0.316 µM) 92.8% and 87.7% and 94.1%; (compound 1 µM) 88% and 96% and 108%; (compound 3.16 µM) 94% and 139% and 114%; (compound 10 µM) 109% and 116% and 90.9%. Further, the IC50 (curve of compound) was > 10000 nM.
